The NIST ThermoML archive (doi:10.1021/je034041x)
Numbers after ± are expanded uncertainties.

Assays:
[1] = xn = mol fraction of the nth substance listed; details: Liquid
[2] = Liquid

O=C=O [carbon dioxide] + O
viscosity ([1]; 273.9 K, 670 kPa, x1 = 0.00869): 1.855 ± 0.12 mPa·s
viscosity ([1]; 274.2 K, 4630 kPa, x1 = 0.00295): 2.827 ± 0.18 mPa·s
viscosity ([1]; 274.3 K, 670 kPa, x1 = 0.00857): 1.851 ± 0.12 mPa·s
viscosity ([1]; 274.5 K, 670 kPa, x1 = 0.0085): 1.839 ± 0.12 mPa·s
viscosity ([1]; 274.6 K, 4610 kPa, x1 = 0.00294): 2.951 ± 0.19 mPa·s
viscosity ([1]; 274.7 K, 670 kPa, x1 = 0.00844): 1.818 ± 0.12 mPa·s
viscosity ([1]; 275 K, 670 kPa, x1 = 0.00834): 1.794 ± 0.12 mPa·s
viscosity ([1]; 275.1 K, 670 kPa, x1 = 0.00831): 1.807 ± 0.12 mPa·s
viscosity ([1]; 275.3 K, 670 kPa, x1 = 0.00824): 1.771 ± 0.12 mPa·s
viscosity ([1]; 275.6 K, 690 kPa, x1 = 0.00815): 1.739 ± 0.11 mPa·s
viscosity ([1]; 275.9 K, 690 kPa, x1 = 0.00805): 1.705 ± 0.11 mPa·s
viscosity ([1]; 276 K, 690 kPa, x1 = 0.00802): 1.694 ± 0.11 mPa·s
viscosity ([1]; 276.1 K, 4780 kPa, x1 = 0.00291): 2.225 ± 0.14 mPa·s
viscosity ([1]; 276.3 K, 4790 kPa, x1 = 0.00291): 2.179 ± 0.14 mPa·s
viscosity ([1]; 276.4 K, 690 kPa, x1 = 0.00789): 1.647 ± 0.11 mPa·s
viscosity ([1]; 276.5 K, 4810 kPa, x1 = 0.0029): 2.171 ± 0.14 mPa·s
viscosity ([1]; 276.7 K, 690 kPa, x1 = 0.00779): 1.605 ± 0.11 mPa·s
viscosity ([1]; 277.1 K, 690 kPa, x1 = 0.00766): 1.604 ± 0.1 mPa·s
viscosity ([1]; 277.5 K, 690 kPa, x1 = 0.00754): 1.57 ± 0.1 mPa·s
viscosity ([1]; 277.7 K, 4850 kPa, x1 = 0.00287): 2.078 ± 0.14 mPa·s
viscosity ([1]; 278.6 K, 4890 kPa, x1 = 0.00285): 1.948 ± 0.13 mPa·s
viscosity ([1]; 279.1 K, 710 kPa, x1 = 0.00702): 1.438 ± 0.094 mPa·s
viscosity ([1]; 279.3 K, 710 kPa, x1 = 0.00695): 1.44 ± 0.094 mPa·s
viscosity ([1]; 279.6 K, 4910 kPa, x1 = 0.00283): 1.848 ± 0.12 mPa·s
viscosity ([1]; 281 K, 710 kPa, x1 = 0.00641): 1.367 ± 0.089 mPa·s
viscosity ([1]; 281 K, 4910 kPa, x1 = 0.0028): 1.728 ± 0.11 mPa·s
viscosity ([1]; 281.8 K, 769 kPa, x1 = 0.00615): 1.225 ± 0.08 mPa·s
viscosity ([1]; 282.1 K, 729 kPa, x1 = 0.00605): 1.267 ± 0.082 mPa·s
viscosity ([1]; 282.1 K, 4920 kPa, x1 = 0.00277): 1.539 ± 0.1 mPa·s
viscosity ([1]; 282.2 K, 4870 kPa, x1 = 0.00277): 1.576 ± 0.1 mPa·s

O [water]
viscosity ([2]; 273.9 K, 670 kPa): 1.833 ± 0.12 mPa·s
viscosity ([2]; 274.2 K, 4630 kPa): 1.802 ± 0.12 mPa·s
viscosity ([2]; 274.3 K, 670 kPa): 1.827 ± 0.12 mPa·s
viscosity ([2]; 274.5 K, 670 kPa): 1.808 ± 0.12 mPa·s
viscosity ([2]; 274.6 K, 4610 kPa): 1.804 ± 0.12 mPa·s
viscosity ([2]; 274.7 K, 670 kPa): 1.774 ± 0.12 mPa·s
viscosity ([2]; 275 K, 670 kPa): 1.737 ± 0.12 mPa·s
viscosity ([2]; 275.1 K, 670 kPa): 1.725 ± 0.11 mPa·s
viscosity ([2]; 275.3 K, 670 kPa): 1.705 ± 0.11 mPa·s
viscosity ([2]; 275.6 K, 690 kPa): 1.683 ± 0.11 mPa·s
viscosity ([2]; 275.9 K, 101.3 kPa): 1.64 ± 0.11 mPa·s
viscosity ([2]; 275.9 K, 690 kPa): 1.66 ± 0.11 mPa·s
viscosity ([2]; 276 K, 690 kPa): 1.652 ± 0.11 mPa·s
viscosity ([2]; 276.1 K, 101.3 kPa): 1.637 ± 0.11 mPa·s
viscosity ([2]; 276.1 K, 4780 kPa): 1.67 ± 0.11 mPa·s
viscosity ([2]; 276.3 K, 101.3 kPa): 1.631 ± 0.11 mPa·s
viscosity ([2]; 276.3 K, 4790 kPa): 1.652 ± 0.11 mPa·s
viscosity ([2]; 276.4 K, 690 kPa): 1.622 ± 0.11 mPa·s
viscosity ([2]; 276.5 K, 4810 kPa): 1.634 ± 0.11 mPa·s
viscosity ([2]; 276.7 K, 101.3 kPa): 1.594 ± 0.11 mPa·s
viscosity ([2]; 276.7 K, 690 kPa): 1.613 ± 0.11 mPa·s
viscosity ([2]; 276.9 K, 101.3 kPa): 1.588 ± 0.1 mPa·s
viscosity ([2]; 277.1 K, 690 kPa): 1.589 ± 0.1 mPa·s
viscosity ([2]; 277.2 K, 101.3 kPa): 1.555 ± 0.1 mPa·s
viscosity ([2]; 277.5 K, 690 kPa): 1.558 ± 0.1 mPa·s
viscosity ([2]; 277.7 K, 4850 kPa): 1.459 ± 0.096 mPa·s
viscosity ([2]; 278.3 K, 101.3 kPa): 1.491 ± 0.098 mPa·s
viscosity ([2]; 278.6 K, 4890 kPa): 1.459 ± 0.095 mPa·s
viscosity ([2]; 279.1 K, 710 kPa): 1.442 ± 0.094 mPa·s
viscosity ([2]; 279.3 K, 101.3 kPa): 1.437 ± 0.094 mPa·s
viscosity ([2]; 279.3 K, 710 kPa): 1.428 ± 0.094 mPa·s
viscosity ([2]; 279.6 K, 4910 kPa): 1.425 ± 0.093 mPa·s
viscosity ([2]; 279.9 K, 101.3 kPa): 1.405 ± 0.092 mPa·s
viscosity ([2]; 281 K, 710 kPa): 1.357 ± 0.089 mPa·s
viscosity ([2]; 281 K, 4910 kPa): 1.375 ± 0.09 mPa·s
viscosity ([2]; 281.8 K, 769 kPa): 1.329 ± 0.087 mPa·s
viscosity ([2]; 282.1 K, 729 kPa): 1.319 ± 0.086 mPa·s
viscosity ([2]; 282.1 K, 4920 kPa): 1.338 ± 0.087 mPa·s
viscosity ([2]; 282.2 K, 101.3 kPa): 1.286 ± 0.084 mPa·s
viscosity ([2]; 282.2 K, 4870 kPa): 1.335 ± 0.087 mPa·s
